Patent US20060293315A1, “Intermediates of novel heterocyclic compounds having antibacterial activity and process for their preparation” (Dr. Reddy's Laboratories Ltd., priority 2001, published 2006)
Values after ≈ are worked out from the molar mass of the structure shown.

Tests used:
[1] = tested on: Staphylococcus aureus 019 MRSA (ATCC 33591); assay: MIC by broth microdilution, Staphylococcus aureus 019 MRSA; format: cell-based; conditions: DRCC 019, MRSA, broth microdilution in MHB, read-out: Antimicrobial Screening (MIC) Staphylococcus aureus 019 MRSA
Experimental: (§1) Minimum Inhibiton Concentrations (MICs) were determined by broth microdilution technique as per the guidelines prescribed in the fifth edition of Approved Standards, NCCLS document M7-A5 Vol 20-No 2, 2000 Villinova, Pa.
(§2) Initial stock solution of the test compound was prepared in DMSO. Subsequent two fold dilutions were carried out in sterile Mueller Hinton Broth (Difco) (MHB).
(§3) Frozen cultures stocks were inoculated into 50 ml sterile MHB in 250 ml Erlyn Meyer flasks.
(§4) Composition of MHB is as follows:
(§5) Flasks were incubated for 4 to 5 h at 35° C. on a rotary shaker at 150 rpm. Inoculum was prepared by diluting the culture in sterile MHB to obtain a turbidity of 0.5 McFarland standard. This corresponds to 1-2×10^8 CFU/ml. The stock was further diluted in sterile broth to obtain 1-2×10^6 CFU/ml. 50 μl of the above diluted inoculum was added from 1-10 wells. The plates were incubated overnight at 37° C.

[2] = tested on: Staphylococcus aureus 213 Smith S (ATCC 49951); assay: MIC by broth microdilution, Staphylococcus aureus 213 Smith S; format: cell-based; conditions: ATCC49951, DRCC 213, Smith S, broth microdilution in MHB, read-out: Antimicrobial Screening (MIC) Staphylococcus aureus 213 Smith S
Experimental: as §1, §2, §3, §4, §5

[3] = tested on: Staphylococcus aureus 035 S (ATCC 29213); assay: MIC by broth microdilution, Staphylococcus aureus 035 S; format: cell-based; conditions: ATCC29213, DRCC 035, S, broth microdilution in MHB, read-out: Antimicrobial Screening (MIC) Staphylococcus aureus 035 S
Experimental: as §1, §2, §3, §4, §5

[4] = tested on: Enterococcus sp 034 S (Enterococcus faecalis ATCC 29212); assay: MIC by broth microdilution, Enterococcus sp 034 S; format: cell-based; conditions: ATCC29212, DRCC 034, S, broth microdilution in MHB, read-out: Antimicrobial Screening (MIC) Enterococcus sp 034 S
Experimental: as §1, §2, §3, §4, §5

[5] = tested on: Enterococcus sp 153 R (Enterococcus faecalis NCTC 12201); assay: MIC by broth microdilution, Enterococcus sp 153 R; format: cell-based; conditions: NCTC12201, DRCC 153, R, broth microdilution in MHB, read-out: Antimicrobial Screening (MIC) Enterococcus sp 153 R
Experimental: as §1, §2, §3, §4, §5

[6] = tested on: Enterococcus sp 154 R (Enterococcus faecium NCTC 12202); assay: MIC by broth microdilution, Enterococcus sp 154 R; format: cell-based; conditions: NCTC12202, DRCC 154, R, broth microdilution in MHB, read-out: Antimicrobial Screening (MIC) Enterococcus sp 154 R
Experimental: as §1, §2, §3, §4, §5

Mycobacterium MTCC 006 = assay: MIC by broth microdilution, Mycobacterium MTCC 006; format: cell-based; conditions: MTCC006, broth microdilution in MHB, read-out: Antimicrobial Screening (MIC) Mycobacterium MTCC 006
Experimental: as §1, §2, §3, §4, §5

Salmorella TA 97 = assay: MIC by broth microdilution, Salmorella TA 97; format: cell-based; conditions: read-out: Antimicrobial Screening (MIC) Salmorella TA 97
Experimental: as §1, §2, §3, §4, §5

[7] = tested on: M. catarrhalis 300 (Moraxella catarrhalis ATCC 25238); assay: MIC by broth microdilution, M. catarrhalis 300; format: cell-based; conditions: ATCC25238, DRCC 300, broth microdilution in MHB, read-out: Antimicrobial Screening (MIC) M. catarrhalis 300
Experimental: as §1, §2, §3, §4, §5

[8] = tested on: H. influenzae 432 (Haemophilus influenzae ATCC 49247); assay: MIC by broth microdilution, H. influenzae 432; format: cell-based; conditions: ATCC49247, DRCC 432, broth microdilution in MHB, read-out: Antimicrobial Screening (MIC) H. influenzae 432
Experimental: as §1, §2, §3, §4, §5

[9] = tested on: H. influenzae 433 (Haemophilus influenzae ATCC 49766); assay: MIC by broth microdilution, H. influenzae 433; format: cell-based; conditions: ATCC49766, DRCC 433, broth microdilution in MHB, read-out: Antimicrobial Screening (MIC) H. influenzae 433
Experimental: as §1, §2, §3, §4, §5

[10] = tested on: H. influenzae 529 (Haemophilus influenzae ATCC 9006); assay: MIC by broth microdilution, H. influenzae 529; format: cell-based; conditions: ATCC9006, DRCC 529, broth microdilution in MHB, read-out: Antimicrobial Screening (MIC) H. influenzae 529
Experimental: as §1, §2, §3, §4, §5

COC(=O)CN1CN(c2c(F)cc(N3C[C@H](CNC(=S)OC)OC3=O)cc2F)CC1=O [Example 169]
MIC [1]: 1 µg/mL (≈ 2.18 µM) | MIC [2]: 1 µg/mL (≈ 2.18 µM) | MIC [3]: 2 µg/mL (≈ 4.36 µM) | MIC [4]: 0.5 µg/mL (≈ 1.09 µM) | MIC [5]: 0.5 µg/mL (≈ 1.09 µM) | MIC [6]: 1 µg/mL (≈ 2.18 µM) | MIC (Mycobacterium MTCC 006): 8 µg/mL (≈ 17.5 µM) | MIC (Salmorella TA 97): 32 µg/mL (≈ 69.8 µM)

CCOC(=S)NC[C@H]1CN(c2cc(F)c(N3CNC(=O)C3)c(F)c2)C(=O)O1 [Example 166]
MIC [1]: 0.5 µg/mL (≈ 1.25 µM) | MIC [2]: 0.5 µg/mL (≈ 1.25 µM) | MIC [3]: 0.5 µg/mL (≈ 1.25 µM) | MIC [4]: 1 µg/mL (≈ 2.5 µM) | MIC [5]: 1 µg/mL (≈ 2.5 µM) | MIC [6]: 1 µg/mL (≈ 2.5 µM) | MIC (Mycobacterium MTCC 006): 32 µg/mL (≈ 79.9 µM) | MIC (Salmorella TA 97): 32 µg/mL (≈ 79.9 µM) | MIC [7]: 32 µg/mL (≈ 79.9 µM) | MIC [8]: > 32 µg/mL | MIC [9]: > 32 µg/mL | MIC [10]: > 32 µg/mL | melting point: 178 to 180 °C

COC(=S)NC[C@H]1CN(c2cc(F)c(N3CC(=O)N(C)C3)c(F)c2)C(=O)O1 [Example 164]
MIC [1]: 0.25 µg/mL (≈ 0.624 µM) | MIC [2]: 0.5 µg/mL (≈ 1.25 µM) | MIC [3]: 0.5 µg/mL (≈ 1.25 µM) | MIC [4]: 0.5 µg/mL (≈ 1.25 µM) | MIC [5]: 0.5 µg/mL (≈ 1.25 µM) | MIC [6]: 0.5 µg/mL (≈ 1.25 µM) | MIC (Mycobacterium MTCC 006): 4 µg/mL (≈ 9.99 µM) | MIC (Salmorella TA 97): 16 µg/mL (≈ 40 µM) | MIC [7]: 8 µg/mL (≈ 20 µM) | MIC [8]: 8 µg/mL (≈ 20 µM) | MIC [9]: 16 µg/mL (≈ 40 µM) | MIC [10]: 16 µg/mL (≈ 40 µM)

CC(C)OC(=S)NC[C@H]1CN(c2cc(F)c(N3CNC(=O)C3)c(F)c2)C(=O)O1 [Example 167]
MIC [1]: 2 µg/mL (≈ 4.83 µM) | MIC [2]: 2 µg/mL (≈ 4.83 µM) | MIC [3]: 2 µg/mL (≈ 4.83 µM) | MIC [4]: 8 µg/mL (≈ 19.3 µM) | MIC [5]: 4 µg/mL (≈ 9.65 µM) | MIC [6]: 8 µg/mL (≈ 19.3 µM) | MIC (Mycobacterium MTCC 006): 32 µg/mL (≈ 77.2 µM) | MIC (Salmorella TA 97): 32 µg/mL (≈ 77.2 µM) | MIC [7]: > 32 µg/mL | MIC [8]: > 32 µg/mL | MIC [9]: > 32 µg/mL | MIC [10]: > 32 µg/mL | melting point: 176 to 178 °C

COC(=S)NC[C@H]1CN(c2cc(F)c(N3CC(=O)N(CC(=O)OC(C)(C)C)C3)c(F)c2)C(=O)O1 [Example 168]
MIC [1]: 2 µg/mL (≈ 4 µM) | MIC [2]: 2 µg/mL (≈ 4 µM) | MIC [3]: 2 µg/mL (≈ 4 µM) | MIC [4]: 2 µg/mL (≈ 4 µM) | MIC [5]: 1 µg/mL (≈ 2 µM) | MIC [6]: 2 µg/mL (≈ 4 µM) | MIC (Mycobacterium MTCC 006): 32 µg/mL (≈ 63.9 µM) | MIC (Salmorella TA 97): 32 µg/mL (≈ 63.9 µM)

COC(=S)NC[C@H]1CN(c2ccc(N3CCOC3=O)c(F)c2)C(=O)O1 [Example 119]
melting point: 137 °C

COCCOC(=S)NC[C@H]1CN(c2ccc(N3CCOC3=O)cc2)C(=O)O1 [Example 136]
melting point: 149 °C

CC(=O)NC[C@H]1CN(c2ccc(-n3c(=O)oc4ccc(C)cc43)c(F)c2)C(=O)O1 [Example 80]
melting point: 202 °C

C=CCOC(=S)NC[C@H]1CN(c2ccc(N3CCOC3=O)cc2)C(=O)O1 [Example 137]
melting point: 150 °C

CC(=O)NC[C@H]1CN(c2ccc(N3CCN(c4ccccc4)C3=O)c(F)c2)C(=O)O1 [Example 95]
melting point: 182 °C

CC(=O)NC[C@H]1CN(c2cc(F)c(N3CCOC3=O)c(F)c2)C(=O)O1 [Example 86]
melting point: 219 °C

COC(=O)NC[C@H]1CN(c2cc(F)c(N3CCOC3=O)c(F)c2)C(=O)O1 [Example 111]
melting point: 157 °C

COC(=O)NC[C@H]1CN(c2ccc(N3CCOC3=O)c(C(F)(F)F)c2)C(=O)O1 [Example 110]
melting point: 148 °C

O=C1O[C@@H](CNC(=S)CC(F)(F)F)CN1c1ccc(N2CCOC2=O)c(F)c1 [Example 99]
melting point: 165 °C

O=C1OCCN1c1ccc(N2C[C@H](CNC(=S)N3CCC[C@H]3CO)OC2=O)cc1 [Example 182]
melting point: 159 °C

O=C1OCCN1c1ccc(N2C[C@H](CNC(=S)Nc3ccccn3)OC2=O)cc1 [Example 191]
melting point: 189 °C

CC(=O)NC[C@H]1CN(c2ccc(N3CCOC3=O)cc2)C(=O)O1 [Example 88]
melting point: 231 °C

CCCOC(=S)NC[C@H]1CN(c2ccc(N3CCOC3=O)cc2)C(=O)O1 [Example 133]
melting point: 176 °C

CCCC(=O)NC[C@H]1CN(c2ccc(N3CCOC3=O)c(F)c2)C(=O)O1 [Example 68]
melting point: 211 °C

CSC(=S)NC[C@H]1CN(c2ccc(N3CCOC3=O)cc2)C(=O)O1 [Example 114]
melting point: 161 °C

CCCCC(=O)NC[C@H]1CN(c2ccc(N3CCOC3=O)c(F)c2)C(=O)O1 [Example 69]
melting point: 187 °C

COC(=S)NC[C@H]1CN(c2ccc(N3CCN(C)C3=S)c(F)c2)C(=O)O1 [Example 126]
melting point: 179 °C

COc1ccc(CNC(=S)NC[C@H]2CN(c3ccc(N4CCOC4=O)cc3)C(=O)O2)cc1 [Example 186]
melting point: 169 °C

CC(=O)NC[C@H]1CN(c2ccc(N3CC(=O)N(C)C3)c(F)c2)C(=O)O1 [Example 90]
melting point: 230 °C

CCC(=O)NC[C@H]1CN(c2ccc(N3CCOC3=O)c(C(F)(F)F)c2)C(=O)O1 [Example 82]
melting point: 143 °C

COC(=S)NC[C@H]1CN(c2ccc(N3CCN(c4ccccc4)C3=O)c(F)c2)C(=O)O1 [Example 147]
melting point: 174 °C

NC(=S)NC[C@H]1CN(c2cc(F)c(N3CCOC3=O)c(F)c2)C(=O)O1 [Example 194]
melting point: 92 °C

O=C1OCCN1c1ccc(N2C[C@H](CNC(=S)NCc3ccccn3)OC2=O)cc1 [Example 187]
melting point: 165 °C

O=C1OCCN1c1ccc(N2C[C@H](CNC(=S)OCCO)OC2=O)cc1 [Example 135]
melting point: 141 °C

O=C1OCCN1c1ccc(N2C[C@H](CNC(=S)OC3CCCCC3)OC2=O)cc1 [Example 122]
melting point: 153 °C

CC(C)OC(=S)NC[C@H]1CN(c2ccc(N3CCN(c4ccc(F)cc4)C3=O)c(F)c2)C(=O)O1 [Example 151]
melting point: 220 °C

C=CC(=O)NC[C@H]1CN(c2ccc(N3CCOC3=O)c(C(F)(F)F)c2)C(=O)O1 [Example 84]
melting point: 191 °C

CC(=O)NC[C@H]1CN(c2ccc(-n3c(=O)oc4ccccc43)cc2)C(=O)O1 [Example 89]
melting point: 229 °C

COC(=S)NC[C@H]1CN(c2ccc(-n3c(=O)oc4ccccc43)cc2)C(=O)O1 [Example 139]
melting point: 141 °C

CNC(=S)NC[C@H]1CN(c2ccc(N3CCOC3=O)c(F)c2)C(=O)O1 [Example 193]
melting point: 144 °C

C=CCN1CN(c2ccc(N3C[C@H](CNC(=S)OC)OC3=O)cc2F)CC1=O [Example 161]
melting point: 86 °C

COC(=S)N(C)C[C@H]1CN(c2cc(F)c(N3CNC(=O)C3)c(F)c2)C(=O)O1 [Example 198]
melting point: 154 to 156 °C

CCC(=O)NC[C@H]1CN(c2cc(F)c(N3CCOC3=O)c(F)c2)C(=O)O1 [Example 87]
melting point: 224 °C
